# Laboratory results reported in ChEMBL document CHEMBL5532731, “Structural Modifications of Covalent Cathepsin S Inhibitors: Impact on Affinity, Selectivity, and Permeability” (ACS Med Chem Lett, 2024).
# The source made the active and inactive calls. No cut-off for these calls is given here. Starred links: 1 amine or outer side, 2 acyl side, 3 side chain; linkers in the order of their positions; H or OH if unused. Non-standard residues stand in square brackets, D forms with d. Residues, ends and D or L forms follow the SMILES beside them. *: point of attachment. Cha = N[C@@H](CC1CCCCC1)C(=O)O; Morpholide = C1CN(*)CCO1; CO = O=C([*:1])[*:2]; Bn = c1ccc(C*)cc1; CH2Cl = ClC*
# Legend:
# Cathepsin S [1] = molecular target: T1, Cathepsin S (Homo sapiens, UniProt P25774); test: Inhibition of Cathepsin S (unknown origin)
# Target sequence in this assay (P25774 whole entry): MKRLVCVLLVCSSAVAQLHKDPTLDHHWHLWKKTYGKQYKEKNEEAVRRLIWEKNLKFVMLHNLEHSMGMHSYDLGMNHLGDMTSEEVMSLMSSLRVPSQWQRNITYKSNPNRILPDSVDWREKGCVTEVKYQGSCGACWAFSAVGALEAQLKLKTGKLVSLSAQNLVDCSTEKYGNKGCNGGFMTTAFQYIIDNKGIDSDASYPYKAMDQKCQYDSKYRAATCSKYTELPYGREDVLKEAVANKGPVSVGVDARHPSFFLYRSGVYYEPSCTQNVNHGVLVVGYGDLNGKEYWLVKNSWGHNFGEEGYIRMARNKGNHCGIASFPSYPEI
# Cathepsin S [2] = molecular target: T1, Cathepsin S; test: Binding affinity to recombinant Cathepsin S (unknown origin) expressed in Escherichia coli using Z-Val-Val-Arg-AMC as substrate assessed as second-order rate constant (K) for irreversible binding by fluorescence based assay
# Target sequence in this assay (P25774 115-331 limits assumed): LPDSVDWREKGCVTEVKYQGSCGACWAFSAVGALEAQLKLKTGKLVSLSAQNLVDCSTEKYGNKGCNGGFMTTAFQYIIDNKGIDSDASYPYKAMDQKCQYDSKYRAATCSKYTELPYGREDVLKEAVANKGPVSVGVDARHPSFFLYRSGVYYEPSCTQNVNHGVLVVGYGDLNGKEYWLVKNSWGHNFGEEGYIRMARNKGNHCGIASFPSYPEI
# Cathepsin S [3] = molecular target: T1, Cathepsin S; test: Binding affinity to recombinant Cathepsin S (unknown origin) expressed in Escherichia coli using Z-Val-Val-Arg-AMC as substrate assessed as Kinact for irreversible binding by fluorescence based assay
# Target sequence in this assay (P25774 115-331 limits assumed): as above
# Cathepsin S [4] = molecular target: T1, Cathepsin S; test: Inhibition of recombinant Cathepsin S (unknown origin) expressed in Escherichia coli using Z-Val-Val-Arg-AMC as substrate by fluorescence based assay
# Target sequence in this assay (P25774 whole entry): as the sequence (P25774 whole entry) above
# Procathepsin L = Procathepsin L (Homo sapiens, UniProt P07711); test: Inhibition of human Cathepsin L using Z-Phe-Arg-AMC as substrate by fluorescence based assay
# Sequence of Procathepsin L (P07711 whole entry): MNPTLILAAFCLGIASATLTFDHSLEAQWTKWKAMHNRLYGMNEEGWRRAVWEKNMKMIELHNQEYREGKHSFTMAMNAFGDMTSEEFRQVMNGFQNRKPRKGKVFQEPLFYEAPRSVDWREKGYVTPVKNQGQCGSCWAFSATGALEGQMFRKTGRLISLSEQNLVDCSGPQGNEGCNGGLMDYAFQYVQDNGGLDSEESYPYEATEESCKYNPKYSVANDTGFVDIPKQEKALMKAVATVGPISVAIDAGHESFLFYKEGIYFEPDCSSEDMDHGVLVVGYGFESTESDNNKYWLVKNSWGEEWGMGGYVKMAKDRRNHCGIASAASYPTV
# Cathepsin B = Cathepsin B (Homo sapiens, UniProt P07858); test: Inhibition of human Cathepsin B using Z-Phe-Arg-AMC as substrate by fluorescence based assay
# [5] = Permeability of compound measured after 7 hrs by PAMPA; assay type: ADME; conditions: read-out: permeability
# Cathepsin S [6] = molecular target: T1, Cathepsin S; test: Irreversible binding affinity to recombinant Cathepsin S (unknown origin) expressed in Escherichia coli incubated for 60 mins followed by substrate addition by fluorescence based dilution assay
# Target sequence in this assay (P25774 115-331 limits assumed): as the sequence (P25774 115-331 limits assumed) above
# [7] = Selectivity index, ratio of Ki for human Cathepsin L using Z-Phe-Arg-AMC as substrate to Ki for recombinant Cathepsin S (unknown origin) expressed in Escherichia coli using Z-Val-Val-Arg-AMC as substrate
# [8] = Selectivity index, ratio of Ki for human Cathepsin B using Z-Phe-Arg-AMC as substrate to Ki for recombinant Cathepsin S (unknown origin) expressed in Escherichia coli using Z-Val-Val-Arg-AMC as substrate
# [9] = Oral bioavailability in rat; assay type: ADME, organism-based; conditions: in vivo
# [10] = Stability of compound at pH 4 assessed as compound remaining measured after 24 hrs; assay type: physicochemical; conditions: buffer, pH 4, 24 h
# [11] = Stability of compound at pH 7.4 assessed as compound remaining measured after 24 hrs; assay type: physicochemical; conditions: buffer, read-out: Stability
# [12] = Stability of compound at pH 4 assessed as compound remaining measured after 2 hrs; assay type: physicochemical; conditions: buffer, pH 4, 2 h
# Cathepsin S [13] = molecular target: T1, Cathepsin S; test: Binding affinity to recombinant Cathepsin S (unknown origin) expressed in Escherichia coli using Z-Val-Val-Arg-AMC as substrate assessed as inhibition constant for slowly reversible binding by fluorescence based assay
# Target sequence in this assay (P25774 whole entry): as the sequence (P25774 whole entry) above
Ki (Cathepsin S [4]),Ki (Procathepsin L),Ki (Cathepsin B),Papp at 7 h [5],SMILES,other results
0.5 nM,–,–,–,O=C(CCl)[C@H](COCc1ccccc1)NC(=O)[C@H](CC1CCCCC1)NC(=O)N1CCOCC1 ({Morpholide-CO}-[Cha]-Ser(Bn)-CH2Cl),K (Cathepsin S [2]): 4.3 10^6/M/s; Kinact (Cathepsin S [3]): 0.002 s⁻¹
382 nM,6340 nM,> 12000 nM,6.6 ×10⁻⁶ cm/s,N#C[C@H](CCc1ccccc1)NC(=O)[C@H](CC1CCCCC1)NC(=O)C1CCOCC1,–
–,543 nM,1050 nM,4.7 ×10⁻⁶ cm/s,N#C[C@H](COCc1ccccc1)NC(=O)[C@H](CC1CCCCC1)NC(=O)N1CCOCC1,–
13 nM,1460 nM,1670 nM,2.5 ×10⁻⁶ cm/s,N#C[C@H](CCc1ccccc1)NC(=O)[C@H](CC1CCCCC1)NC(=O)c1ccncc1,–
61 nM,5040 nM,> 12000 nM,4.1 ×10⁻⁶ cm/s,N#C[C@H](COCc1ccccc1)NC(=O)[C@H](CC1CCCCC1)NC(=O)C1CCOCC1,–
146 nM,> 10000 nM,> 12000 nM,–,N#C[C@H](CCc1ccccc1)NC(=O)[C@H](CC1CCCCC1)N[C@@H](c1ccc(F)cc1)C(F)(F)F,–
117 nM,1670 nM,> 12000 nM,0.1 ×10⁻⁶ cm/s,N#CC1(NC(=O)[C@H](CC2CCCCC2)NC(=O)C2CCOCC2)CC1,–
67 nM,> 600 nM,> 2550 nM,–,O=C(CO)[C@H](COCc1ccccc1)NC(=O)[C@H](CC1CCCCC1)NC(=O)N1CCOCC1,Activity (Cathepsin S [6]): inactive
–,1020 nM,1910 nM,2 ×10⁻⁶ cm/s,N#C[C@H](COCc1ccccc1)NC(=O)[C@H](CC1CCCCC1)NC(=O)c1ccncc1,–
0.039 nM,17 nM,64 nM,4.5 ×10⁻⁶ cm/s,O=C[C@H](COCc1ccccc1)NC(=O)[C@H](CC1CCCCC1)NC(=O)N1CCOCC1 ({Morpholide-CO}-[Cha]-Ser(Bn)-aldehyde),Ratio Ki [7]: > 435; Ki (Cathepsin S [13]): 0.016 nM; Ratio Ki [8]: > 1600
–,2540 nM,7850 nM,6 ×10⁻⁶ cm/s,N#C[C@H](CCc1ccccc1)NC(=O)[C@H](CC1CCCCC1)NC(=O)N1CCOCC1,–
3 nM,–,–,–,C=CS(=O)(=O)C(=O)[C@H](COCc1ccccc1)NC(=O)[C@H](CC1CCCCC1)NC(=O)N1CCOCC1,K (Cathepsin S [2]): 7.2 10^6/M/s; Activity (Cathepsin S [6]): Active; Kinact (Cathepsin S [3]): 0.02 s⁻¹

# The next lines start with the compound.
SMILES,Ki (Cathepsin S [4]),Ki (Procathepsin L),Ki (Cathepsin B),Papp at 7 h [5],other results
CN1CCN(C(=O)N[C@@H](Cc2ccccc2)C(=O)N[C@H](/C=C/S(=O)(=O)c2ccccc2)CCc2ccccc2)CC1 [K-777],–,–,–,–,Ki (Cathepsin S [1]): 13 nM
N#CC1(NC(=O)[C@H](CC2CCCCC2)N[C@@H](c2ccc(F)cc2)C(F)(F)F)CC1,20 nM,1500 nM,> 12000 nM,4.9 ×10⁻⁶ cm/s,–
O=C(OCC(=O)[C@H](COCc1ccccc1)NC(=O)[C@H](CC1CCCCC1)NC(=O)N1CCOCC1)c1ccccc1,25 nM,> 600 nM,> 2550 nM,–,Activity (Cathepsin S [6]): Active
CS(=O)(=O)C[C@H](N[C@@H](c1ccc([N+](=O)[O-])cc1)C(F)(F)F)C(=O)N[C@H](C#N)CCc1ccccc1,3.6 nM,> 10000 nM,36 nM,–,Ratio Ki [7]: > 2780
CS(=O)(=O)C[C@H](N[C@@H](c1ccc(F)cc1)C(F)(F)F)C(=O)NC1(C#N)CC1,1 nM,7110 nM,1670 nM,–,Activity (Cathepsin S [6]): inactive; Ratio Ki [8]: 1670
N#CC1(NC(=O)[C@H](CC2CCCCC2)NC(=O)c2ccncc2)CC1,13 nM,716 nM,> 12000 nM,–,–
CNC(=O)O[C@H]1COc2ccc(N3CCN(C4COC4)CC3)cc2[C@@H]1NC(=O)c1ccc(F)cc1,–,–,–,–,bioavailability [9]: 92%
O=C(SCC(=O)[C@H](COCc1ccccc1)NC(=O)[C@H](CC1CCCCC1)NC(=O)N1CCOCC1)c1ccccc1,165 nM,> 3000 nM,> 10 nM,–,Activity (Cathepsin S [6]): inactive
O=C(N/N=C(\CS(=O)(=O)c1ccccc1)[C@H](COCc1ccccc1)NC(=O)[C@H](CC1CCCCC1)NC(=O)N1CCOCC1)c1ccccc1,989 nM,> 2500 nM,> 12 nM,–,Stability [10]: 13%
O=C(N/N=C/[C@H](COCc1ccccc1)NC(=O)[C@H](CC1CCCCC1)NC(=O)N1CCOCC1)c1ccccc1,2.2 nM,21 nM,142 nM,0.1 ×10⁻⁶ cm/s,remaining at 24 h [11]: 50%; Stability [12]: 50%; Stability [10]: 80%
CS(=O)(=O)C[C@H](N[C@@H](c1ccc([N+](=O)[O-])cc1)C(F)(F)F)C(=O)N[C@H](C#N)COCc1ccccc1,13 nM,> 10000 nM,82 nM,0.7 ×10⁻⁶ cm/s,–
N#CC1(NC(=O)[C@H](CC2CCCCC2)NC(=O)N2CCOCC2)CC1,1.5 nM,385 nM,> 12000 nM,–,–
N#C[C@H](COCc1ccccc1)NC(=O)[C@H](CC1CCCCC1)N[C@@H](c1ccc(F)cc1)C(F)(F)F,11 nM,> 10000 nM,> 12000 nM,–,–
CS(=O)(=O)C[C@H](N[C@@H](c1ccc([N+](=O)[O-])cc1)C(F)(F)F)C(=O)NC1(C#N)CC1,7.8 nM,> 10000 nM,> 12000 nM,–,Ratio Ki [8]: > 1500
O=C(CS(=O)(=O)c1ccccc1)[C@H](COCc1ccccc1)NC(=O)[C@H](CC1CCCCC1)NC(=O)N1CCOCC1,331 nM,> 600 nM,> 510 nM,0.8 ×10⁻⁶ cm/s,Ki (Cathepsin S [13]): 43 nM; Activity (Cathepsin S [6]): inactive
CS(=O)(=O)C[C@H](N[C@@H](c1ccc(F)cc1)C(F)(F)F)C(=O)N[C@H](C#N)COCc1ccccc1,2.4 nM,1950 nM,157 nM,–,–
